According to patent US12643899B2, “Antiviral agents, uses thereof and methods for their preparation” (The University of British Columbia, priority 2020, dated 2026):

Key:
V-ATPase = molecular target: T1, V-ATPase (Homo sapiens, UniProt P27449); experiment: Acridine orange vital staining of intracellular organelles of A549 cells (V-ATPase inhibition); assay type: cell-based; conditions: CA 250 nM, 6 h
T1 construct: endogenous in cells; host or cells: A549 cells (ATCC #CCL-185, or acquired from Synthego)
T1 sequence (P27449 whole entry, looked up): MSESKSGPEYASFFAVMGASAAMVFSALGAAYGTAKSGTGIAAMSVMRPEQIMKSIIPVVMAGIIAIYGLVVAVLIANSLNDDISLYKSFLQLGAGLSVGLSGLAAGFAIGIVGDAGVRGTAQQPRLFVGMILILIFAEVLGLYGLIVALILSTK
Protocol: Cultured A549 cells were treated with 1 μM CD, or 250 nM CA or the V-ATPase specific inhibitor bafilomycin A1 (100 nm) for 6 h. After removing the culture medium and washing the cells with Hanks' balanced salt solution (HBSS), a 1:4000 dilution of acridine orange (2% solution, Polysciences Inc.) in HBSS was added to cells and incubated for 10 min. Cells were then washed again with HBSS and analyzed by fluorescence microscopy. In color images, a red color corresponds to the protonated version of the molecule, which permeates acidic organelles and becomes sequestered following protonation. One representative of 3 biological replicates is shown.

DENV-4 = DENV-4 intracellular dsRNA (Cellomics) in A549 cells; assay type: cell-based, dengue virus
Protocol: Error bars represent SD among 3 biological replicates. Cultured A549 cells were treated with the indicated concentrations of CA (1=Mock, 2=0 M, 3=1 μM, 4=5 M, 5=10 M, 6=20 µM) or PF-429242 (7=15 M) for 1 h before being washed with PBS and infected with DENV-2, DENV-3, or DENV-4 at MOI 1.0 for 48 h. Cells were labeled for viral dsRNA with […] then imaged and quantified using the Cellomics ArrayScan™ VTI High Content Screening system.
Viruses. ZIKV: ZIKV strain PRVABC59 (Puerto Rico/2015) (ATCC #VR-1843) was used in these studies, specifically three separate stocks generated in Vero E6 cells with titres of 1.35×10^8 pfu/mL, 1.0×10^7 pfu/mL, and 2.9×10^6 pfu/mL respectively. DENV strains: DENV-2 strain NGC, DENV-3 strain H-87, and DENV-4 strain H-241 were kindly provided by National Microbiology Laboratory, Winnipeg, MB, Canada.
A549 cells were seeded onto Corning tissue culture treated 96 well plates and incubated at 37 degrees Celsius and 5% CO2 for 24 h. CA was diluted in MEM complete media to concentrations of 1 μM, 5 μM, 10 μM, 20 μM, including a 0 μM condition. Diluted CA was added to each well and cells were incubated at 37 degrees Celsius and 5% CO2 for 1 h. After 1 h, cells were washed once with PBS to remove CA and were then infected with DENV-2, -3 or -4 at an MOI of 1. […] Labeled 96 well plates were imaged and quantified using the Cellomics ArrayScan VTI. […]

COc1c2n(c3ccccc13)[C@]1(O)C(=O)N(C)C(=O)[C@]1(O)c1c-2[nH]c2ccc(Cl)cc12 [CA, (11S,15R)-7-chloro-11,15-dihydroxy-23-methoxy-13-methyl-3,13,16-triazahexacyclo[14.7.0.0^2,10.0^4,9.0^11,15.0^17,22]tricosa-1(23),2(10),4(9),5,7,17,19,21-octaene-12,14-dione]
vital staining with acridine orange of intracellular organelles (V-ATPase): inhibited vital staining | activity against Dengue virus 4 in vitro (DENV-4; 1-20 μM, FIG. 8 lower plots): good activity | IC50 (DENV-4; Dengue virus, DENV4, DENV-4, intracellular dsRNA (Cellomics)): 3.2 µM
